Source: PubChem BioAssay (NCI)
“And” between values parts separate entries of the source, which are not always exact repeats. Equal entries are not always repeated.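 Five concentrations, 48 hours, 96-well plates. The concentration for 50% growth inhibition is given as GI50. At the TGI there is no net growth.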 Where a SMILES comes first, the peptide text is derived from it. The star is where a group is joined. Cbz = O=C(OCc1ccccc1)*

What was measured:
Assay in all cases: growth of human tumour cells (NCI), 48 h
[1] = system: DU-145 prostate
[2] = system: HT29 colon
[3] = system: M14 melanoma
[4] = system: MDA-N
[5] = system: OVCAR-4 ovarian
[6] = system: PC-3 prostate
[7] = system: SK-OV-3 ovarian
[8] = system: SNB-19 CNS
[9] = system: SW-620 colon
[10] = system: UO-31 renal

| Compound | TGI [1] | TGI [2] | TGI [3] | TGI [4] | TGI [5] | TGI [6] | TGI [7] [µM] | TGI [8] | TGI [9] | TGI [10] [µM] | GI50 [7] [µM] |
| --- | --- | --- | --- | --- | --- | --- | --- | --- | --- | --- | --- |
| OC(C/C=N/N=C/CC(O)(C(F)(F)Cl)C(F)(F)Cl)(C(F)(F)Cl)C(F)(F)Cl | > 10 µM | > 10 µM | > 10 µM | > 10 µM | > 10 µM | > 10 µM | > 10 | > 10 µM | > 10 µM | > 10 |  |
| O=P1(Cc2ccccc2)N(Cc2ccccc2)[C@@H]2CCCC[C@H]2N1Cc1ccccc1 | 27.1 µM | 18.6 µM | 16.6 µM | 19.8 µM | 15.2 µM | 15.3 µM | 28 | 24.2 µM | 30.1 µM | 19.7 |  |
| C=CC1(CC[C@]2(c3ccc(OC)c(OC)c3)C=[N+]([O-])O[C@H](O[C@@H]3CCCC[C@H]3C(C)(C)c3ccccc3)C2)OCC(C)(C)CO1 | 49.9 µM | 28.2 µM | > 58.1 µM | 24.7 µM | 28.9 µM | 28.3 µM | > 65.3 | > 54.1 µM | > 46.5 µM | > 48.7 |  |
| COc1cccc(CC(=O)N2CCN(CCCc3ccccc3)CC2)c1 | > 100 µM | > 100 µM | > 100 µM | > 100 µM | > 100 µM | > 100 µM | > 100 | > 100 µM | > 100 µM | > 100 |  |
| CC(=O)OC(CCC1(C)OC1COc1ccc(CCNC(=O)C=C(C)C)cc1)C(C)(C)OC(C)=O (stereo unspecified) | > 100 µM | > 100 µM | > 57.6 µM | 51.9 µM | > 100 µM | > 100 µM | > 100 | > 100 µM | > 100 µM | > 100 |  |
| C=C1CCCCCCCCC/C=C/1SCCCSC | > 100 µM | > 100 µM | > 100 µM | > 100 µM | > 100 µM | > 100 µM | > 100 | > 100 µM | > 100 µM | > 100 |  |
| O=C1C(Br)=CC2(C=C1Br)CCNC1=C2C(=O)c2ncccc2C1=O | 3.06 µM | 4.56 µM | 3.01 µM | 0.353 µM | 2.48 µM | 8.59 µM | 5.8 | 2.77 µM | 2.73 µM | 2.35 |  |
| COC(=O)N[C@H](C(=O)NC(OCc1ccccc1)C1COC(C)(C)O1)C(C)O[Si](C)(C)C(C)(C)C (stereo partly specified) | > 100 µM | > 100 µM | > 100 µM | > 100 µM | > 100 µM | > 100 µM | > 100 | > 100 µM | > 100 µM | > 100 |  |
| CCCCCCc1cc2cc(C(=O)Nc3ccc(F)cc3)c(=N)oc2cc1O | 6.78 µM | > 100 µM | 13.2 µM | 28.1 µM | 23.2 µM | 13.5 µM | 8.09 | 25.3 µM | > 100 µM | 18.4 |  |
| Cc1n[n+](Cc2ccccc2)c2sc(N)nn12 | > 100 µM | > 100 µM | > 100 µM | > 100 µM | > 100 µM | > 100 µM | > 100 | > 100 µM | > 100 µM | > 100 |  |
| CCCCC1Cc2cc(O)ccc2-c2nc3cc(O)ccc3n21 (stereo unspecified) (tested in a mixture with another compound) | > 100 µM | 31.9 µM | 28.6 µM | 36.3 µM | 30.8 µM | 53.3 µM | 40.4 | 26.3 µM | 39.5 µM | 28.5 |  |
| O=c1cc(NNc2cccc(Cl)c2)[nH]c(=O)[nH]1 | > 100 µM | > 100 µM | 37.7 µM | > 100 µM | > 100 µM | > 100 µM | > 100 | > 100 µM | 33 µM | > 100 |  |
| CCOC(=O)CCC(NC(=O)OCc1ccccc1)C(=O)NC(CCC(=O)OCC)C(=O)OCC (stereo unspecified) (Cbz-Glu(OEt)-Glu(OEt)-OEt; configuration not given here) | > 100 µM | > 100 µM | > 100 µM | > 100 µM | > 100 µM | > 100 µM | > 100 | > 100 µM | > 100 µM | > 100 |  |
| Cc1ccnc2c1C(=O)C1=C(OC(C)(C)CC1O)C2=O (stereo unspecified) | 17.2 µM | 10.8 µM | 9.97 µM | 2.9 µM | 12.8 µM | 13 µM | 27.2 | 21.1 µM | 10.4 µM | 11.3 |  |
| Oc1c(Br)ccc2cccnc12 | > 68.8 µM | > 35.8 µM | > 32.5 µM | > 100 µM | > 92.9 µM | > 100 µM | 61.6 | > 100 µM | > 45.6 µM | 22.8 |  |
| CC(=O)OCC1OC(n2c(C)c(N=Nc3ccc(Cl)cc3)c(C)c(C#N)c2=S)C(OC(C)=O)C(OC(C)=O)C1OC(C)=O (stereo unspecified) | > 100 µM | > 100 µM | > 100 µM | > 100 µM | > 100 µM | > 100 µM | > 100 | > 100 µM | > 100 µM | > 100 |  |
| CCOc1cc(NC(C)=O)ccc1C(=O)NNS(=O)(=O)c1ccc(NC(C)=O)cc1 | > 100 µM | > 100 µM | > 100 µM | 39.2 µM | > 100 µM | > 100 µM | > 100 | > 100 µM | > 100 µM | > 100 |  |

| Compound | TGI [1] | TGI [2] | TGI [3] | TGI [4] | TGI [5] | TGI [6] | TGI [7] [µM] | TGI [8] | TGI [9] | TGI [10] [µM] | GI50 [7] [µM] |
| --- | --- | --- | --- | --- | --- | --- | --- | --- | --- | --- | --- |
| O=C(Cn1c2ccc(Br)cc2c2nc3ccccc3nc21)NNC(=S)NC1CCCCC1 | 29.4 µM | 28.9 µM | 24.2 µM | 30.4 µM | 41.2 µM | 24 µM | 70.8 | 33.8 µM | 29.2 µM | 22.3 |  |
| CCC(=O)OCN(C)c1nc(N(C)COC(=O)CC)nc(N(C)COC(=O)CC)n1 | > 100 µM | 98.3 µM | 77.3 µM | > 100 µM | > 100 µM | > 100 µM | > 100 | > 100 µM | > 100 µM | > 100 |  |
| C/C=C\C(CC(=O)NCC(=O)c1c[nH]c2ccccc12)CC(=O)OC (stereo unspecified) | > 100 µM | > 100 µM | > 100 µM | > 100 µM | > 100 µM | > 100 µM | > 100 | > 100 µM | > 100 µM | > 100 |  |
| CC(=O)SC(C[N+](=O)[O-])c1ccc2c(c1)OCO2 (stereo unspecified) | 33.7 µM | 5.56 µM | 15.6 µM | 4.64 µM | 23.1 µM | 28.9 µM | 18 | 21.5 µM | 11.9 µM | 11.9 |  |
| CN1CCCOC(c2ccc(Cl)cc2)O1 (stereo unspecified) | > 100 µM | > 100 µM | > 100 µM | > 100 µM | > 100 µM | > 100 µM | > 100 | > 100 µM | > 100 µM | > 100 |  |
| O=C1/C(=C\c2cccc(Oc3ccccc3)c2)S(=O)(=O)C(c2ccccc2)N1c1cccc(Cl)c1 (stereo unspecified) | > 100 µM | > 100 µM | > 100 µM | > 100 µM | > 100 µM | > 100 µM | > 100 | > 100 µM | 69 µM | > 100 |  |
| CCC1CC(O)c2c(O)c3c(c(O)c2C1O)C(=O)c1cccc(O)c1C3=O (stereo unspecified) (tested in a mixture with another compound) | 0.135 µM and 0.651 µM | 0.181 µM and 0.202 µM | 0.0434 µM and 0.0173 µM | 0.093 µM and 0.0639 µM | 0.0932 µM and 0.0821 µM | 0.0749 µM and 0.159 µM | 5.7 | 0.929 µM and 1.34 µM | 0.0707 µM and 0.128 µM | 0.038 | 0.0111 |
| COC(=O)[C@@H](NC(=O)N(Cc1ccccc1)C[C@H](CC(C)C)NC(=O)[C@@H](NC(=O)OC(C)(C)C)C(C)C)C(C)C | > 100 µM | > 100 µM | > 100 µM | > 100 µM | > 100 µM | > 100 µM | > 100 | > 100 µM | > 100 µM | > 100 |  |
| CC1CC(Nc2ccc(Br)cc2)N(C(=O)c2ccc(Br)cc2)O1 (stereo unspecified) | > 10 µM | > 10 µM | > 10 µM | > 10 µM | > 10 µM | > 10 µM | > 10 | > 10 µM | > 10 µM | > 10 |  |
| COc1ccc(C2(CC(C)C)CCN(S(=O)(=O)c3ccc(C)cc3)C2)cc1OC (stereo unspecified) | > 100 µM | > 100 µM | > 100 µM | > 100 µM | > 100 µM | > 100 µM | > 100 | > 100 µM | > 100 µM | > 100 |  |
| Cc1ccc(C(=O)NCc2ccccc2)cc1N=NN(C)C | > 100 µM | > 100 µM | > 100 µM | > 100 µM | > 100 µM | > 100 µM | > 100 | > 100 µM | > 100 µM | > 100 |  |
| O=c1[nH]nc(Cc2ccc(Cl)cc2)n1/N=C/c1cccs1 | > 100 µM | 40.2 µM | > 100 µM | > 100 µM | > 100 µM | > 100 µM | > 100 | 64 µM | > 100 µM | > 100 |  |
| CN1CC=C(c2c(N)nc(N)[nH]c2=O)CC1 | > 100 µM | > 100 µM | > 100 µM | > 100 µM | > 100 µM | > 100 µM | > 100 | > 100 µM | > 100 µM | > 100 |  |
| O=c1[nH]c2nc3ccccc3c(=O)n2/c1=C/c1cccs1 | > 100 µM | > 100 µM | > 100 µM | > 100 µM | > 100 µM | > 100 µM | > 100 | > 100 µM | > 100 µM | > 100 |  |
| CC(NC(=O)Cc1ccccc1)NC(=O)C(C)C(=O)NCc1ccccc1 (stereo unspecified) | > 100 µM | > 100 µM | > 100 µM | > 100 µM | > 100 µM | > 100 µM | > 100 | 58.8 µM | > 100 µM | > 100 |  |
| O=C1CCSCCC(=O)Nc2ccccc2N1 | > 100 µM | > 100 µM | > 100 µM | > 100 µM | > 100 µM | > 100 µM | > 100 | > 100 µM | > 100 µM | > 100 |  |
| O=[N+]([O-])c1c(F)c(F)c2c(c1F)N(CCCCCl)c1ccccc1S2 | 26.1 µM | 6.74 µM | 18.2 µM | 28.9 µM | 21.2 µM | 12.7 µM | 34 | 19.5 µM | 8.78 µM | 30.5 |  |
